In general, EC50 refers to the midpoint of the concentration-response curve.

In assay [1] the test system is mouse model of multiple sclerosis. The note with it: in vivo administration; cited from earlier work.
Assay [2] deals with patients with mild-to-moderate Alzheimer's disease. To be noted: 20 mg three times a day (60 mg/day); cited from earlier work.
Assay [3] concerns SK-N-SH human neuroblastoma cells. Nature of the assay: Serum Deprivation/JC-1 Mitochondrial Membrane Potential (MMP) Assay. It is filed as cell-based. The note with it: Homo sapiens; for activation at 3 µM: single dose 3 μM, JC-1 ratio normalized to peak value for 10 μM dimebolin (n=2-4), read-out: JC-1 max % (@ 3 μM); for activation at 3 µM / Emax: serum deprivation; for EC50 / Emax: SK-N-SH; for EC50: 18 h, serum deprivation ~18 hours, JC-1 ratio normalized to peak value for 10 μM dimebolin, single curve fit to mean data of n=2-3; for Emax: percent maximal intensity in JC-1 ratio normalized to peak value for 10 μM dimebolin, read-out: JC-1 max %. In short, it runs like this:
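SK-N-SH cells serum-deprived ~18 h with compound, then stained with JC-1 for 40 min at 37 °C; red (560/595 nm) to green (485/535 nm) ratio reports membrane potential. Response normalized to peak from 10 μM dimebolin; EC50 from fit to mean of n=2–3, or single-dose 3 μM; DMSO ≤1%.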

Structures are written as SMILES.

On to `O=C1C=C(c2ccccc2)C(=O)N1c1cccc(Cl)c1` [1-(3-chlorophenyl)-3-phenyl-pyrrole-2,5-dione], for which the “development of the disease” value in assay [1] is on record as “significantly prevented the development of the disease”.
Turning to `Cc1ccc2c(c1)c1c(n2CCc2ccc(C)nc2)CCN(C)C1` [dimebolin], the “clinical course of disease (ADAS-Cog, improvement over baseline)” value in assay [2] is reported as “significant improvement in the clinical course of disease”.
As to `COCCNC(=O)N1Cc2ccccc2N2CCN(Cc3ccccc3)CC2C1` (stereo not drawn) [Example 167, 3-benzyl-N-(2-methoxyethyl)-1,2,3,4,4a,5-hexahydropyrazino[1,2-a][1,4]benzodiazepine-6(7H)-carboxamide], the activation at 3 µM in assay [3] worked out at 63%.
As to `N#CCCN(C(=O)N1Cc2ccccc2N2CCN(Cc3ccccc3)CC2C1)C1CC1` (stereo not drawn) [Example 153, 3-benzyl-N-(2-cyanoethyl)-N-cyclopropyl-1,2,3,4,4a,5-hexahydropyrazino[1,2-a][1,4]benzodiazepine-6(7H)-carboxamide], in assay [3], the activation at 3 µM was found to be 68%.
`c1ccc(CN2CCN3c4ccccc4CN(Cc4cccc5ccccc45)CC3C2)cc1` (stereo not drawn) [Example 138, 3-benzyl-6-(1-naphthylmethyl)-1,2,3,4,4a,5,6,7-octahydropyrazino[1,2-a][1,4]benzodiazepine]: in assay [3], the EC50 was determined as 1.83 µM and the Emax is 203%.
Consider `CCN(CC)C(=O)N1Cc2ccccc2N2CCN(Cc3ccccc3)CC2C1` (stereo not drawn) [Example 158, 3-benzyl-N,N-diethyl-1,2,3,4,4a,5-hexahydropyrazino[1,2-a][1,4]benzodiazepine-6(7H)-carboxamide], for which, in assay [3], the EC50 worked out at 1.02 µM and the Emax came to 181%.
For the compound `CN(C)CCCNC(=O)N1Cc2ccccc2N2CCN(Cc3ccccc3)CC2C1` (stereo not drawn) [Example 164, 3-benzyl-N-[3-(dimethylamino)propyl]-1,2,3,4,4a,5-hexahydropyrazino[1,2-a][1,4]benzodiazepine-6(7H)-carboxamide], the activation at 3 µM in assay [3] was determined as 93%.
Consider `CN1CCN2c3ccccc3CN(C(=O)c3ccccc3Cl)CC2C1` (stereo not drawn) [Example 174, (2-chlorophenyl)(3-methyl-1,2,3,4,4a,5-hexahydropyrazino[1,2-a][1,4]benzodiazepin-6(7H)-yl)methanone], for which the activation at 3 µM in assay [3] turned out to be 41%.
For the compound `Fc1ccc(CN2Cc3ccccc3N3CCN(Cc4ccccc4)CC3C2)cc1` (stereo not drawn) [Example 17, 3-benzyl-6-(4-fluorobenzyl)-1,2,3,4,4a,5,6,7-octahydropyrazino[1,2-a][1,4]benzodiazepine], in assay [3], the EC50 stood at 4.48 µM and the Emax amounted to 183%.
In the case of `Cc1cc(C(=O)N2Cc3ccccc3N3CCN(Cc4ccccc4)CC3C2)c(C)n1C` (stereo not drawn) [Example 95, (3-benzyl-1,2,3,4,4a,5-hexahydropyrazino[1,2-a][1,4]benzodiazepin-6(7H)-yl)(1,2,5-trimethyl-1H-pyrrol-3-yl)methanone], in assay [3], the EC50 stood at 0.282 µM and the Emax worked out at 189%.
In the case of `c1ccc(CN2CCN3c4ncccc4NCCC3C2)cc1` (stereo not drawn) [Example 52, 9-benzyl-5,6,7,7a,8,9,10,11-octahydropyrazino[1,2-d]pyrido[3,2-b][1,4]diazepine], in assay [3], the EC50 was 5.97 µM and the Emax was found to be 100%.
Turning to `Cn1cccc1C(=O)N1Cc2ccccc2N2CCN(Cc3ccccc3)CC2C1` (stereo not drawn) [Example 105, (3-benzyl-1,2,3,4,4a,5-hexahydropyrazino[1,2-a][1,4]benzodiazepin-6(7H)-yl)(1-methyl-1H-pyrrol-2-yl)methanone], in assay [3], the EC50 turned out to be 2.52 µM and the Emax is 197%.
With `O=C(Cc1ccccc1)N1Cc2ccccc2N2CCN(Cc3ccccc3)CC2C1` (stereo not drawn) [Example 4, 1-(3-benzyl-1,2,3,4,4a,5-hexahydropyrazino[1,2-a][1,4]benzodiazepin-6(7H)-yl)-2-phenylethanone], in assay [3], the EC50 was 2.42 µM and the Emax is 263%.
With `CCC(=O)N1Cc2ccccc2N2CCN(Cc3ccccc3)CC2C1` (stereo not drawn) [Example 106, 1-(3-benzyl-1,2,3,4,4a,5-hexahydropyrazino[1,2-a][1,4]benzodiazepin-6(7H)-yl)propan-1-one], the activation at 3 µM in assay [3] was determined as 81%.
For the compound `c1ccc(CN2CCN3c4ccccc4CN(Cc4cccnc4)CC3C2)cc1` (stereo not drawn) [Example 28, 3-benzyl-6-(pyridin-3-ylmethyl)-1,2,3,4,4a,5,6,7-octahydropyrazino[1,2-a][1,4]benzodiazepine], in assay [3], the EC50 stood at 9.59 µM and the Emax was 88%.
`CN1CCC2CN(Cc3ccccc3)CCN2c2ncccc21` (stereo not drawn) [Example 55, 9-benzyl-5-methyl-5,6,7,7a,8,9,10,11-octahydropyrazino[1,2-d]pyrido[3,2-b][1,4]diazepine]: in assay [3], the concentration for a half-maximal effect (EC50) was 9.95 µM and the Emax came out at 99%.
For the compound `Cc1ccsc1CN1Cc2ccccc2N2CCN(Cc3ccccc3)CC2C1` (stereo not drawn) [Example 142, 3-benzyl-6-[(3-methyl-2-thienyl)methyl]-1,2,3,4,4a,5,6,7-octahydropyrazino[1,2-a][1,4]benzodiazepine], in assay [3], the activation at 3 µM amounted to 13%.
Turning to `Ic1ccc(CN2Cc3ccccc3N3CCN(Cc4ccccc4)CC3C2)cc1` (stereo not drawn) [Example 46, 3-benzyl-6-(4-iodobenzyl)-1,2,3,4,4a,5,6,7-octahydropyrazino[1,2-a][1,4]benzodiazepine], in assay [3], the EC50 was found to be 1.87 µM and the Emax was determined as 192%.
Taken in the same sequence, the figures for `O=C(Cc1ccc(Cl)cc1)N1CCC2CN(Cc3ccccc3)CCN2c2ccccc21` (stereo not drawn) [Example 27, 1-(3-benzyl-2,3,4,4a,5,6-hexahydropyrazino[1,2-a][1,5]benzodiazepin-7(1H)-yl)-2-(4-chlorophenyl)ethanone] were 4.44 µM and 149%.

(Values after patent US9133206B2, “Benzodiazepine and pyridodiazepine derivatives” (AbbVie Inc., priority 2010, dated 2015).)
